Data on twelve molecules can be found in patent US8158656B2, “2-indolinone derivatives as multi-target protein kinase inhibitors and histone deacetylase inhibitors” (Shenzhen Chipscreen Biosciences Ltd., priority 2008, dated 2012).

One assay deals with VEGFR2 (Homo sapiens, UniProt P35968). Kind of assay: VEGF receptor kinase ELISA bioassay. The class given is biochemical. The following applies: ELISA kinase assay, 200 μM ATP. A general note: In an ELISA, binding on a coated surface is turned into a signal by an enzyme label.
Sequence of VEGFR2 (P35968 807-1356): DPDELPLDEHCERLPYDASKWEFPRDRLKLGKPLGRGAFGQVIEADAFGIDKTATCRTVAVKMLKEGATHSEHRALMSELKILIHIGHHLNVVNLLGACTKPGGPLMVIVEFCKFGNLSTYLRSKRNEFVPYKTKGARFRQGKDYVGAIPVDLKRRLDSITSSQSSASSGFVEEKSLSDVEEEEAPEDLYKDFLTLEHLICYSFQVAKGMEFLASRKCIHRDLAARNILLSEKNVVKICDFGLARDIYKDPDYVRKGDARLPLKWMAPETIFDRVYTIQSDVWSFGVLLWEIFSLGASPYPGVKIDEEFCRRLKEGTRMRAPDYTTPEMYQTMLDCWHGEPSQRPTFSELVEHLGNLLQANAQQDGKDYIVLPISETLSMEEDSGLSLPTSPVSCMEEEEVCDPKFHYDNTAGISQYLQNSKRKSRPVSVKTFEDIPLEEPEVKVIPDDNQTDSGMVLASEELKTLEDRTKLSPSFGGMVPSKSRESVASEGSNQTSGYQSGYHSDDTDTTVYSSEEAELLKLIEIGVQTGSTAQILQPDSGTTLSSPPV
Another assay deals with T1, HDAC3 (Homo sapiens, UniProt O15379).
T1 construct: endogenous in cells; host or cells: HeLa
T1 sequence (O15379 whole entry): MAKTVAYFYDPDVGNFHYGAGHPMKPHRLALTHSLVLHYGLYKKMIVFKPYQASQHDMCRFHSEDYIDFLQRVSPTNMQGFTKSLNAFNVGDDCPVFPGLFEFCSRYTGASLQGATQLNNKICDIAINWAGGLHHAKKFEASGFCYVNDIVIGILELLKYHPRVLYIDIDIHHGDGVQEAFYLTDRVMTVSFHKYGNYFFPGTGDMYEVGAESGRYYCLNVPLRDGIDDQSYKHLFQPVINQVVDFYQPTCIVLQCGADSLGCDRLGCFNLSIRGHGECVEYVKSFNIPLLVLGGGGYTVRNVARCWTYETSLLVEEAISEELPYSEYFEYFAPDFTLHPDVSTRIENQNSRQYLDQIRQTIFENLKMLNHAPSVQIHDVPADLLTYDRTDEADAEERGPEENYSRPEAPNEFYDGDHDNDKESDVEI
T1 sequence (Q9Y618 whole entry partner): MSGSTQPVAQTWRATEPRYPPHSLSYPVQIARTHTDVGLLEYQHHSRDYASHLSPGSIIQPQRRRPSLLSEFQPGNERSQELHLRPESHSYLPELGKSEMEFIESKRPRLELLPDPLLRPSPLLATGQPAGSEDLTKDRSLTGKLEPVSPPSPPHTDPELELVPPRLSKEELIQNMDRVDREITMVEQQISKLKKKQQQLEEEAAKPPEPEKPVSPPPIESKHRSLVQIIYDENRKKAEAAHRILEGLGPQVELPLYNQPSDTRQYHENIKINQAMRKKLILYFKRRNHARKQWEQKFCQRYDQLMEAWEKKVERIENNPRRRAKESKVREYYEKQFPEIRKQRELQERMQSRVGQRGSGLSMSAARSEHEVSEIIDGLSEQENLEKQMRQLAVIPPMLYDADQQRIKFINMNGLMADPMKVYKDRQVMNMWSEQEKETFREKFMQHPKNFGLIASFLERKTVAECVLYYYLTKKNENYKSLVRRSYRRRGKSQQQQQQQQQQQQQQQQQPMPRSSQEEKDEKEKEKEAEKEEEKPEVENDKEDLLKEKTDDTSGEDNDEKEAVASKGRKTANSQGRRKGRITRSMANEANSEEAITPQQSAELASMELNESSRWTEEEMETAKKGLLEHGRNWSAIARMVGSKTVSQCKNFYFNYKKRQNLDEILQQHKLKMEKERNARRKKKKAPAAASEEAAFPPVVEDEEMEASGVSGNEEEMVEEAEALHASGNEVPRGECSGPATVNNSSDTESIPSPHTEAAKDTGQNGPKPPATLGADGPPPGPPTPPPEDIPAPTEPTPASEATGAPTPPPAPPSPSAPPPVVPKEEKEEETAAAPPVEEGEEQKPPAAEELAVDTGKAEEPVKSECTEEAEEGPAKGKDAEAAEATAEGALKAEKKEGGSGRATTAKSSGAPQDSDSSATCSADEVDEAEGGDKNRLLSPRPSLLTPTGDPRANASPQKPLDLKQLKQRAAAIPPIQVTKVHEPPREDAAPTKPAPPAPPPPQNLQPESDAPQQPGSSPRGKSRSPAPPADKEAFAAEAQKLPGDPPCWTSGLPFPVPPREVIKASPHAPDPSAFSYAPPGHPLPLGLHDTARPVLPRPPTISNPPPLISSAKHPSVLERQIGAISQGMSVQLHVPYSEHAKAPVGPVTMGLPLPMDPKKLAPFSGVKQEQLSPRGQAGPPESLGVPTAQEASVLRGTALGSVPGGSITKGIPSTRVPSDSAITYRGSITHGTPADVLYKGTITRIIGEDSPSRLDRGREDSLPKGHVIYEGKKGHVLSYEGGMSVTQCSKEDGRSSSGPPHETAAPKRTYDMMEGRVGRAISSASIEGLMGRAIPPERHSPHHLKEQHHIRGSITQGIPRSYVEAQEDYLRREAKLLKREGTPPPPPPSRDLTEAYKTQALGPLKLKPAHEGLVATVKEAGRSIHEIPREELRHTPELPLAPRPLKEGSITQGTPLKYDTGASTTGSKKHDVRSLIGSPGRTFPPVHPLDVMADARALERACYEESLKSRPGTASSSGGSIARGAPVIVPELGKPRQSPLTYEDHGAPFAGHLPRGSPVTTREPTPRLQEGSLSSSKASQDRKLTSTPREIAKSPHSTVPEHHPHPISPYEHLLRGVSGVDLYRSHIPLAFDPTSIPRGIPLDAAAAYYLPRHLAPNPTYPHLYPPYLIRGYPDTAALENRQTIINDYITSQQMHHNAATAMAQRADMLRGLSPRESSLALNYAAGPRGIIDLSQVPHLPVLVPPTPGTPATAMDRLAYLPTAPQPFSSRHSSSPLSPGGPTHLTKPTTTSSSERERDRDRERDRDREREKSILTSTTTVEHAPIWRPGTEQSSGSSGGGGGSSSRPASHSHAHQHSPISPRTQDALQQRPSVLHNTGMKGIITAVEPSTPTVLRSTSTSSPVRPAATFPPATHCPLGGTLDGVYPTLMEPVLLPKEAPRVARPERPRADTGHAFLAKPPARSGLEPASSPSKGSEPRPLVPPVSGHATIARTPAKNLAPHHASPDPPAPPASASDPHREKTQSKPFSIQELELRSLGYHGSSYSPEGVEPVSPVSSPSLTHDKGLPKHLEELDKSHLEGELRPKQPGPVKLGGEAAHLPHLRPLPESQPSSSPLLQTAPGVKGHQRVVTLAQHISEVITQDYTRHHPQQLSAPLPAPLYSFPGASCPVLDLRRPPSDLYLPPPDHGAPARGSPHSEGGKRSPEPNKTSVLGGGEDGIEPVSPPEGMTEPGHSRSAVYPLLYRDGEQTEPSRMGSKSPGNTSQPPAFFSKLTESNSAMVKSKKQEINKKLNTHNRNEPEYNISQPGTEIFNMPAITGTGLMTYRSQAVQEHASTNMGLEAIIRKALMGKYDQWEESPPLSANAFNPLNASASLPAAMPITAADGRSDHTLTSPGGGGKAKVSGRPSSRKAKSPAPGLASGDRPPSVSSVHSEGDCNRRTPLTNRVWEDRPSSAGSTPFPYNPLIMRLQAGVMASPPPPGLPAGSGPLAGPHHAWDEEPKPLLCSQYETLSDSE
As to the kind of experiment: GDF11 reporter assay in HeLa cells. In kind it is cell-based. As to conditions: for HDAC3 (GDF11 reporter assay) % Max Resp of CS055 at 3 μM: relative to CS055 at 3 μM; for EC50: 24 hours. How it is done: (§1) HDAC subtype selectivity inhibition assay of tested compounds was carried out by several reporter gene assays experiments. Briefly, HeLa cells were seeded in 96-well plates the day before transfection to give a confluence of 50-80%. Cells were transfected with one of reporter gene plasmid containing a promoter sequence or response element upstream of a luciferase gene construct using FuGene6 transfection reagent according to the manufacturer's instruction (Roche). The promoters or response elements including p21-promoter, gdf11-promoter, MEF-binding element (MEF2), Nur77-promoter were fused upstream to the luciferase gene reporter construct. For normalizing the transfection efficiency, a GFP expression plasmid was cotransfected. Cells were allowed to express protein for 24 hours followed by addition of individual compounds or the vehicle (DMSO). 24 hours later the cells were harvested, and the luciferase assay and GFP assay were performed using corresponding assay kits according to the manufacturer's instructions (Promega).
For orientation: In a reporter assay the amount or activity of a reporter protein is the signal.

The target in a further assay is T2, HDAC7 (Homo sapiens, UniProt Q8WUI4).
T2 construct: endogenous in cells; host or cells: HeLa
T2 sequence (Q8WUI4 1-952): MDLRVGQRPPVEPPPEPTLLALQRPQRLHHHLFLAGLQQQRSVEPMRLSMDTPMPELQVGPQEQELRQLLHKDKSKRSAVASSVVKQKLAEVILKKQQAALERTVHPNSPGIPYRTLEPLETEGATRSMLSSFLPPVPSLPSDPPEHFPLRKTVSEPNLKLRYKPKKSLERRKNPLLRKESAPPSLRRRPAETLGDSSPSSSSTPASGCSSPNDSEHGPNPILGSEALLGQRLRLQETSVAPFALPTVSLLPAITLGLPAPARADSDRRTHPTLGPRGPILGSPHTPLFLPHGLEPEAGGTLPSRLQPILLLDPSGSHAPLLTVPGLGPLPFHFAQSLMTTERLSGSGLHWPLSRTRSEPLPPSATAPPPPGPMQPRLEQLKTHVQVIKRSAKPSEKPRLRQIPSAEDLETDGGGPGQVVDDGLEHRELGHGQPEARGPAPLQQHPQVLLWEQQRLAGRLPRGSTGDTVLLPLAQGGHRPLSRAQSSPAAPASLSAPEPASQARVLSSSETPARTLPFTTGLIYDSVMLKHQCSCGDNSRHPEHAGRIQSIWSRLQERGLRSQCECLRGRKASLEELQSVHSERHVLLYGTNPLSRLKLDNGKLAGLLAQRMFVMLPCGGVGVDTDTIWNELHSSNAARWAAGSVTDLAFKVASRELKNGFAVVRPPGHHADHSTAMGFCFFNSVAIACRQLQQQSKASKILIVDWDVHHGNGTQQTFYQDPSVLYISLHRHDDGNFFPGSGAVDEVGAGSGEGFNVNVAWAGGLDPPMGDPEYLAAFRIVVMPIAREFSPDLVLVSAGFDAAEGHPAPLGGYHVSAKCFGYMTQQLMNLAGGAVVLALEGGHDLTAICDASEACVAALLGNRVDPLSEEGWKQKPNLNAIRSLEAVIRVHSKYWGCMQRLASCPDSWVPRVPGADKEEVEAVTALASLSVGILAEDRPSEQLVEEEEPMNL
As to the kind of experiment: Nur77 reporter assay in HeLa cells. In kind it is cell-based. As to conditions: for HDAC7 (Nur77 reporter assay) % Max Resp of CS055 at 3 μM: relative to CS055 at 3 μM; for EC50: 24 hours. The method, then:
as §1

Some results are limits rather than exact numbers.

`Cc1[nH]c(/C=N/N=C2\C(=O)Nc3ccc(F)cc32)c(C)c1C(=O)NCCCCNc1ccc(C(=O)Nc2ccccc2N)cn1` [Example 10, N-(2-aminophenyl)-6-(4-(2-(((5-fluoro-2-oxoindolin-3-ylidene)hydrazono)-methyl)-3,5-dimethyl-1H-pyrrole-4-carboxamido)butylamino)nicotinamide]: the 50% inhibitory concentration (IC50) (commonly the point on the concentration scale where inhibition reaches its midpoint) at VEGFR2 is over 1000 nM. Besides, the “HDAC3 (GDF11 reporter assay) % Max Resp of CS055 at 3 μM” value (“HDAC3 (GDF11 reporter assay) % Max Resp” below) on HDAC3 is given as 8.3%. In addition, the “HDAC7 (Nur77 reporter assay) % Max Resp of CS055 at 3 μM” value (“HDAC7 (Nur77 reporter assay) % Max Resp” for short) on HDAC7 is 13.2%.
In the same order, the values of `Cc1[nH]c(/C=N/N=C2\C(=O)Nc3ccc(F)cc32)c(C)c1C(=O)NCCNc1ccc(C(=O)Nc2ccc(F)cc2N)cn1` [Example 14, N-(2-amino-4-fluorophenyl)-6-(2-(2-(((5-fluoro-2-oxoindolin-3-ylidene)-hydrazono)methyl)-3,5-dimethyl-1H-pyrrole-4-carboxamido)ethylamino)nicotinamide] are 324 nM, 2.0% and 4.5%.
Turning to `Cc1[nH]c(/C=N/N=C2\C(=O)Nc3ccc(F)cc32)c(C)c1C(=O)NCCCNc1ccc(C(=O)Nc2ccccc2N)cn1` [Example 7, N-(2-aminophenyl)-6-(3-(2-(((5-fluoro-2-oxoindolin-3-ylidene)hydrazono)-methyl)-3,5-dimethyl-1H-pyrrole-4-carboxamido)propylamino)nicotinamide], the IC50 against VEGFR2 is 634 nM. Also, on HDAC3, the “HDAC3 (GDF11 reporter assay) % Max Resp” value was determined as 6.3%. For the same molecule, the “HDAC7 (Nur77 reporter assay) % Max Resp” value on HDAC7 was found to be 12.4%.
The molecule `Cc1[nH]c(/C=C2\C(=O)Nc3ccc(F)cc32)c(C)c1C(=O)NCCCNc1ccc(C(=O)Nc2ccccc2N)cn1` [Example 6, (Z)-N-(2-aminophenyl)-6-(3-(2-((5-fluoro-2-oxoindolin-3-ylidene)methyl)-3,5-dimethyl-1H-pyrrole-4-carboxamido)propylamino)nicotinamide] yielded an IC50 against VEGFR2 of 45 nM. Besides, on HDAC3, the response was half-maximal at 1000 nM (EC50) and the “HDAC3 (GDF11 reporter assay) % Max Resp” value is recorded as 75.6%. Moreover, at HDAC7, the EC50 – broadly, the concentration needed to bring the measured effect to its halfway point – worked out at 2500 nM and the “HDAC7 (Nur77 reporter assay) % Max Resp” value is 88.1%.
In the same order, the values of `Cc1[nH]c(/C=C2\C(=O)Nc3ccc(F)cc32)c(C)c1C(=O)NCCCCNc1ccc(C(=O)Nc2ccccc2N)cn1` [Example 9, (Z)-N-(2-aminophenyl)-6-(4-(2-((5-fluoro-2-oxoindolin-3-ylidene)methyl)-3,5-dimethyl-1H-pyrrole-4-carboxamido)butylamino)nicotinamide] are 35 nM, 15500 nM, 81.4%, 13200 nM and 88.7%.
Take `Cc1[nH]c(/C=C2\C(=O)Nc3ccc(F)cc32)c(C)c1C(=O)NCCCNc1ccc(C(=O)Nc2ccc(F)cc2N)cn1` [Example 16, (Z)-N-(2-amino-4-fluorophenyl)-6-(3-(2-((5-fluoro-2-oxoindolin-3-ylidene)-methyl)-3,5-dimethyl-1H-pyrrole-4-carboxamido)propylamino)nicotinamide]: the IC50 at VEGFR2 worked out at 72 nM. The “HDAC3 (GDF11 reporter assay) % Max Resp” value at HDAC3 amounted to 1.8%. The “HDAC7 (Nur77 reporter assay) % Max Resp” value at HDAC7 is 6.5%.
The molecule `Cc1[nH]c(/C=N/N=C2\C(=O)Nc3ccc(F)cc32)c(C)c1C(=O)NCCCCNc1ccc(C(=O)Nc2ccc(F)cc2N)cn1` [Example 20, N-(2-amino-4-fluorophenyl)-6-(4-(2-(((5-fluoro-2-oxoindolin-3-ylidene)-hydrazono)methyl)-3,5-dimethyl-1H-pyrrole-4-carboxamido)butylamino)nicotinamide] yielded an IC50 against VEGFR2 of over 1000 nM. The “HDAC3 (GDF11 reporter assay) % Max Resp” value at HDAC3 amounted to 4.1%. The “HDAC7 (Nur77 reporter assay) % Max Resp” value at HDAC7 worked out at 1.0%.
On the same counts, the results for `Cc1[nH]c(/C=C2\C(=O)Nc3ccc(F)cc32)c(C)c1C(=O)NCCNc1ccc(C(=O)Nc2ccc(F)cc2N)cn1` [Example 13, (Z)-N-(2-amino-4-fluorophenyl)-6-(2-(2-((5-fluoro-2-oxoindolin-3-ylidene)-methyl)-3,5-dimethyl-1H-pyrrole-4-carboxamido)ethylamino)nicotinamide] are 43 nM, 1.8% and 6.4%.
As to `Cc1[nH]c(/C=C2\C(=O)Nc3ccc(F)cc32)c(C)c1C(=O)NCCNc1ccc(C(=O)Nc2ccccc2N)cn1` [Example 3, (Z)-N-(2-aminophenyl)-6-(2-(2-((5-fluoro-2-oxoindolin-3-ylidene)methyl)-3,5-dimethyl-1H-pyrrole-4-carboxamido)ethylamino)nicotinamide], on VEGFR2, half-maximal inhibition (IC50) was put at 11 nM. On HDAC3, the EC50 was 1900 nM and the “HDAC3 (GDF11 reporter assay) % Max Resp” value was 106.2%. Moreover, at HDAC7, the midpoint of the response, the EC50, lay at 2900 nM and the “HDAC7 (Nur77 reporter assay) % Max Resp” value is on record as 113.5%.
The molecule `Cc1[nH]c(/C=C2\C(=O)Nc3ccc(F)cc32)c(C)c1C(=O)NCCCCNc1ccc(C(=O)Nc2ccc(F)cc2N)cn1` [Example 19, (Z)-N-(2-amino-4-fluorophenyl)-6-(4-(2-((5-fluoro-2-oxoindolin-3-ylidene)-methyl)-3,5-dimethyl-1H-pyrrole-4-carboxamido)butylamino)nicotinamide] had an IC50 against VEGFR2 of 157 nM. Besides, the “HDAC3 (GDF11 reporter assay) % Max Resp” value on HDAC3 came to 2.0%. The “HDAC7 (Nur77 reporter assay) % Max Resp” value at HDAC7 is reported as 6.0%.
At VEGFR2, `Cc1[nH]c(/C=N/N=C2\C(=O)Nc3ccc(F)cc32)c(C)c1C(=O)NCCCNc1ccc(C(=O)Nc2ccc(F)cc2N)cn1` [Example 17, N-(2-amino-4-fluorophenyl)-6-(3-(2-(((5-fluoro-2-oxoindolin-3-ylidene)-hydrazono)methyl)-3,5-dimethyl-1H-pyrrole-4-carboxamido)propylamino)nicotinamide] returned a 50% inhibitory concentration (IC50) of over 1000 nM. Besides, the “HDAC3 (GDF11 reporter assay) % Max Resp” value on HDAC3 came out at 3.8%. The “HDAC7 (Nur77 reporter assay) % Max Resp” value at HDAC7 came to 3.5%.
As to `Cc1[nH]c(/C=N/N=C2\C(=O)Nc3ccc(F)cc32)c(C)c1C(=O)NCCNc1ccc(C(=O)Nc2ccccc2N)cn1` [Example 4, N-(2-aminophenyl)-6-(2-(2-(((5-fluoro-2-oxoindolin-3-ylidene)hydrazono)-methyl)-3,5-dimethyl-1H-pyrrole-4-carboxamido)ethylamino)nicotinamide], the concentration for half-maximal inhibition (IC50) on VEGFR2 amounted to 12 nM. For the same molecule, the “HDAC3 (GDF11 reporter assay) % Max Resp” value on HDAC3 was 2.4%. In addition, at HDAC7, the “HDAC7 (Nur77 reporter assay) % Max Resp” value came out at 3.9%.
